Test results as given in publication PMC10447463, “Data-mining unveils structure–property–activity correlation of viral infectivity enhancing self-assembling peptides” (Nature Communications, 2023).
Where two headings read alike, the source gives them in different places.

Tests used:
[1] = type: physicochemical; settings: for ThT Cat. / ThT-Fluorescence (categorical): ThT-active if fluorescence at least twice the control
Summary of the method: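 Preformed peptide fibrils (1 mg/mL) mixed with 50 µM ThT in PBS, 15 min at RT, fluorescence ex 440/em 488 nm versus PBS blank, triplicates. Zeta potential: peptides at 1 mg/mL in PBS pH 7.4, aged 1 d at RT, diluted in 1 mM KCl, Smoluchowski from electrophoretic mobility.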

TZM-bl cells = type: cell-based; settings: CellTiter-Glo, mean of n = 3 replicates; for viability 0.26 µM: peptide 0.26 µM; for viability 1.3 µM: peptide 1.3 µM; for viability 6.5 µM: peptide 6.5 µM
Summary of the method: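 Viability of TZM-bl cells (10,000 seeded) after 3 days with serially diluted peptides, measured by CellTiter-Glo luminescence. Values normalized to 100% metabolic activity; triplicates.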

[2] = Conversion rate (CR) assay with fluorescamine; type: physicochemical
Summary of the method: (§1)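 First, PNF was ultrafiltered (3 kDa MWCO, 16200 x g, 45 min, 4 °C). Next, filtrate and unfiltered sample were lyophilized and taken up in DMSO. Then fluorescamine was added for 20 min at RT before reading ex 365/em 470 nm. β-sheet: ATR FT-IR of lyophilized 1 mg/mL PNF.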

[3] = β-sheet content by ATR-FT-IR; type: physicochemical
Summary of the method: as §1

[4] = Turbidity, derived count rate of scattered light; type: physicochemical; settings: log10 of derived count rate of scattered light, Figure 7B
[5] = ThT fluorescence relative to blank (42.1851851851852 a.u.)
[6] = relative to blank 42.1851851851852 a.u.
[7] = ThT fluorescence relative to blank, blank = 42.1851851851852

For CEFEFQF [KB12], the “Tht rel to blank (42.1851851851852)” value [1, 5] was 2.788.

For CKFKFPF, the “ThT Cat. / ThT-Fluorescence (categorical)” value (from here on “ThT Cat. / ThT-Fluorescence”) [1] was 0 (ThT-inactive (N-Fold <2)).

In the case of CKIKIQIII [AR0 / F19], the “viability 0.26 µM” value (TZM-bl cells) is reported as 109.6, the “viability 1.3 µM” value (TZM-bl cells) is reported as 100.4 and the “viability 6.5 µM” value (TZM-bl cells) is reported as 87.63. The “Tht category (> 1.5 to blank = +)” value ([1]; category 1/0) was 1 (ThT. Cat is 1, if Rel. ThT >2) and the “Tht rel to blank (42.1851851851852)” value [1, 6] was 4.14.

In the case of CKIKIQIRGD [psis21], the “viability 0.26 µM” value (TZM-bl cells) is reported as 104.5, the “viability 1.3 µM” value (TZM-bl cells) is reported as 107.1 and the “viability 6.5 µM” value (TZM-bl cells) is reported as 97.19. For the same substance, the “Tht category (> 1.5 to blank = +)” value ([1]; FigS26) was 0 (Tht category (> 1.5 to blank = +)).

For CKIKIWIW, the “ThT Cat. / ThT-Fluorescence” value [1] was 1 (ThT. Cat is 1, if Rel. ThT >2).

In the case of CKIWIQIY, the “ThT Cat. / ThT-Fluorescence” value [1] is reported as 1 (ThT. Cat is 1, if Rel. ThT >2).

For CRFRFHFH, the “ThT Cat. / ThT-Fluorescence” value [1] was 0 (ThT-inactive (N-Fold <2)).

In the case of CRLRVGVS, the “ThT Cat. / ThT-Fluorescence” value [1] is reported as 0 (ThT-inactive (N-Fold <2)).

In the case of CRLSLSLS, the “ThT Cat. / ThT-Fluorescence” value [1] is reported as 0 (ThT-inactive (N-Fold <2)).

With EIEIQINM [TM95 / (TM75)] the “Conversion Rate / %” value [2] was 79.85%, the “FTIR ß-sheet content/ %” value [3] was 53.87% and the “Tht rel to blank (42.1851851851852)” value [1, 5] was 1.473.

With EIEIQINMWQ [VH8] the “Conversion Rate / %” value [2] was 89.92%, the “FTIR ß-sheet content/ %” value [3] was 53.91% and the “Tht rel to blank (42.1851851851852)” value [1, 5] was 4.145.

For GYVIIK [reference compound], the “Log10 Count Rate” value [4] was 1.476 and the “ThT Cat. / ThT-Fluorescence” value [1] was 0 (ThT-inactive (N-Fold <2)).

With HHHHKAKAKAKAWWWW [TM8] the “Tht rel to blank (42.1851851851852)” value [1, 7] was 3.672 and the “Tht category (> 1.5 to blank = +)” value ([1]; category 1/0) was 1 (ThT. Cat is 1, if Rel. ThT >2).

With HHHHKAKAKAKAYYYY [TM10] the “viability 0.26 µM” value (TZM-bl cells) was 107.4, the “viability 1.3 µM” value (TZM-bl cells) was 112.1 and the “viability 6.5 µM” value (TZM-bl cells) was 104.4. The “Tht rel to blank (42.1851851851852)” value [1, 7] was 1.39 and the “Tht category (> 1.5 to blank = +)” value ([1]; category 1/0) was 0 (ThT-inactive (N-Fold <2)).

With HLHLPLL [CN14] the “Conversion Rate / %” value ([2]; fluorescamine assay) was 37.51%, the “FTIR ß-sheet content/ %” value ([3]; ATR-FT-IR) was 49.19% and the “Tht rel to blank (42.1851851851852)” value [1, 7] was 1.069. For the same substance, the “Tht category (> 1.5 to blank = +)” value ([1]; category 1/0) was 0 (ThT-inactive (N-Fold <2)).

In the case of IFQINS [reference compound], the “Log10 Count Rate” value [4] is reported as 1.56 and the “ThT Cat. / ThT-Fluorescence” value [1] is reported as 1 (ThT. Cat is 1, if Rel. ThT >2).

With IIIK [reference compound] the “Log10 Count Rate” value [4] was 1.413 and the “ThT Cat. / ThT-Fluorescence” value [1] was 0 (ThT-inactive (N-Fold <2)).

For IIIQGK [reference compound], the “Log10 Count Rate” value [4] was 0.9808 and the “ThT Cat. / ThT-Fluorescence” value [1] was 0 (ThT-inactive (N-Fold <2)).

In the case of IKFLSVN [reference compound], the “Log10 Count Rate” value [4] is reported as 2.136 and the “ThT Cat. / ThT-Fluorescence” value [1] is reported as 0 (ThT-inactive (N-Fold <2)).

With KAKLTCT the “ThT Cat. / ThT-Fluorescence” value [1] was 0 (ThT-inactive (N-Fold <2)).

With KAKQAANMWQ [JG6] the “Tht rel to blank (42.1851851851852)” value [1, 7] was 1.208 and the “Tht category (> 1.5 to blank = +)” value ([1]; category 1/0) was 0 (ThT-inactive (N-Fold <2)).

With KAQCTLP the “ThT Cat. / ThT-Fluorescence” value [1] was 0 (ThT-inactive (N-Fold <2)).

For KFKFQFF [TG6], the “Tht rel to blank (42.1851851851852)” value [1, 5] was 2.58, the “Tht rel to blank (42.1851851851852)” value [1, 7] was 2.58 and the “Tht category (> 1.5 to blank = +)” value ([1]; category 1/0) was 1 (ThT. Cat is 1, if Rel. ThT >2). For the same substance, the “Tht rel to blank (42.1851851851852)” value [1, 6] was 2.58.

In the case of KFKFQFN [BL7], the “Tht category (> 1.5 to blank = +)” value ([1]; category 1/0) is reported as 0 (ThT-inactive (N-Fold <2)) and the “Tht rel to blank (42.1851851851852)” value [1, 6] is reported as 1.056.

In the case of KFKFQFNMW [BL5 / KB13], the “Tht category (> 1.5 to blank = +)” value ([1]; category 1/0) is reported as 0 (ThT-inactive (N-Fold <2)) and the “Tht rel to blank (42.1851851851852)” value [1, 6] is reported as 1.342.

With KFKQFFINMWQ [VH14] the “Tht rel to blank (42.1851851851852)” value [1, 7] was 1.085 and the “Tht category (> 1.5 to blank = +)” value ([1]; category 1/0) was 0 (ThT-inactive (N-Fold <2)).

With KFQFNMW the “ThT Cat. / ThT-Fluorescence” value [1] was 0 (ThT-inactive (N-Fold <2)).

With KIKIKIKI [TM13] the “Tht category (> 1.5 to blank = +)” value ([1]; category 1/0) was 1 (ThT. Cat is 1, if Rel. ThT >2) and the “Tht rel to blank (42.1851851851852)” value [1, 6] was 3.325.

With KIKIKIKIWW [TM21] the “viability 0.26 µM” value (TZM-bl cells) was 95.22, the “viability 1.3 µM” value (TZM-bl cells) was 94.23 and the “viability 6.5 µM” value (TZM-bl cells) was 80.72. The “Tht category (> 1.5 to blank = +)” value ([1]; category 1/0) was 1 (ThT. Cat is 1, if Rel. ThT >2) and the “Tht rel to blank (42.1851851851852)” value [1, 6] was 3.538.

In the case of KIKIKIKIWWWW [TM12], the “viability 0.26 µM” value (TZM-bl cells) is reported as 125.9, the “viability 1.3 µM” value (TZM-bl cells) is reported as 106.4 and the “viability 6.5 µM” value (TZM-bl cells) is reported as 86.48. For the same substance, the “Tht category (> 1.5 to blank = +)” value ([1]; category 1/0) was 1 (ThT. Cat is 1, if Rel. ThT >2) and the “Tht rel to blank (42.1851851851852)” value [1, 6] was 2.303.

In the case of KIKIQIAMWQ [JR4], the “Tht category (> 1.5 to blank = +)” value ([1]; FigS26) is reported as 1 (Tht category (> 1.5 to blank = +)).

For KIKIQII [TG1 / (KM4)], the “Tht rel to blank (42.1851851851852)” value [1, 5] was 1.392, the “Tht rel to blank (42.1851851851852)” value [1, 7] was 1.392 and the “Tht category (> 1.5 to blank = +)” value ([1]; category 1/0) was 0 (ThT-inactive (N-Fold <2)). The “Tht rel to blank (42.1851851851852)” value [1, 6] was 1.392.

With KIKIQIII [TG7] the “Tht rel to blank (42.1851851851852)” value [1, 5] was 2.287, the “Tht rel to blank (42.1851851851852)” value [1, 7] was 2.287 and the “Tht category (> 1.5 to blank = +)” value ([1]; category 1/0) was 1 (ThT. Cat is 1, if Rel. ThT >2). The “Tht rel to blank (42.1851851851852)” value [1, 6] was 2.287.

With KIKIQIMQWN [VH16] the “Tht category (> 1.5 to blank = +)” value ([1]; FigS26) was 0 (Tht category (> 1.5 to blank = +)).

In the case of KIKIQIMWNQ [VH15], the “Tht category (> 1.5 to blank = +)” value ([1]; FigS26) is reported as 0 (Tht category (> 1.5 to blank = +)).
